Experimental data as given in patent US20250228239A1, “MOLECULES HAVING PESTICIDAL UTILITY, AND INTERMEDIATES, COMPOSITIONS, AND PROCESSES, RELATED THERETO” (priority 2024, published 2025).

Experiments:
Assay type in all cases: in vivo
[1] = tested on: Yellow Fever Mosquito (Aedes aegypti, AEDSAE); conditions: Yellow Fever Mosquito; rating class
Summary of the method: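 Compounds from DMSO master plates (4000 ppm stock) diluted in 90:10 water/acetone, then dispensed into six replicate plates and infested with ~1-day-old Aedes aegypti larvae in liver-powder water. Held covered at room temperature for 3 days; each well scored for larval mortality and graded on a rating scale.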

[2] = tested on: Cabbage Looper (Trichoplusia ni, TRIPNI); experiment: Bioassays on Cabbage Looper (CL), 128-well diet tray assay; conditions: Trichoplusia ni; Cabbage Looper; rating class; read-out: CL
Summary of the method: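 Activity is mean percent mortality over eight wells of second-instar larvae exposed to diet treated at 50 μg/cm^2 for 5–7 days at 25° C.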

[3] = tested on: Beet Armyworm (Spodoptera exigua, LAPHEG); experiment: Bioassays on Beet Armyworm (BAW), 128-well diet tray assay; conditions: Spodoptera exigua; Beet Armyworm; rating class; read-out: BAW
Summary of the method: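 Test molecule was dissolved in 90:10 acetone-water and applied at 50 μg/cm^2 onto artificial diet in eight wells, then dried. Second instar larvae, one to five per well, were added, and trays were kept vented at 25° C. with a 14:10 photoperiod for five to seven days before mortality was recorded.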

[4] = tested on: Green Peach Aphid (Myzus persicae, MYZUPE); experiment: Bioassays on Green Peach Aphid (GPA), foliar spray on cabbage seedlings; conditions: 72 h, Green Peach Aphid, rating class, read-out: GPA
Summary of the method: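 Percent control (Abbott-corrected versus solvent-sprayed plants) comes from live-aphid counts three days after treatment at about 25° C. Test solution at 200 ppm was sprayed to runoff onto both leaf surfaces of cabbage seedlings infested a day earlier with 20-50 aphids; four replicate pots.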

| Compound | YFM [1] | pest or weed control at 50 µg/cm2 [2] [%] | pest or weed control at 50 µg/cm2 [3] [%] | pest or weed control at 200 µg/mL [4] [%] |
| --- | --- | --- | --- | --- |
| O=C(Nc1ccc(F)c(NC(=O)C(F)(F)F)c1F)c1cc(NC(=O)[C@H]2[C@H](c3ccc(F)c(Cl)c3)C2(Cl)Cl)ccc1Cl [F1695, 2-Chloro-5-((1R,3R)-2,2-dichloro-3-(3-chloro-4-fluorophenyl)cyclopropane-1-carboxamido)-N-(2,4-difluoro-3-(2,2,2-trifluoroacetamido)phenyl)benzamide] | B (More than 0 – Less than 80) | 50 to 100 | 50 to 100 | 80 to 100 |
| O=C(Nc1ccc(F)c(NC(=O)C(F)(F)C(F)(F)F)c1F)c1cc(NC(=O)[C@H]2[C@H](c3ccc(F)c(Cl)c3)C2(Cl)Cl)ccc1Cl [F1696, 2-Chloro-5-((1R,3R)-2,2-dichloro-3-(3-chloro-4-fluorophenyl)cyclopropane-1-carboxamido)-N-(2,4-difluoro-3-(2,2,3,3,3-pentafluoropropanamido)phenyl)benzamide] | A (80–100) | 50 to 100 | 50 to 100 | 80 to 100 |
| O=C(Nc1ccc(F)c(NC(=O)C(F)(F)Cl)c1F)c1cc(NC(=O)[C@H]2[C@H](c3ccc(F)c(Cl)c3)C2(Cl)Cl)ccc1Cl [F1697, 2-Chloro-N-(3-(2-chloro-2,2-difluoroacetamido)-2,4-difluorophenyl)-5-((1R,3R)-2,2-dichloro-3-(3-chloro-4-fluorophenyl)cyclopropane-1-carboxamido)benzamide] | A (80–100) | 50 to 100 | 50 to 100 | 80 to 100 |
| O=C(Nc1ccc(F)c(NC(=O)C2CCCO2)c1F)c1cc(NC(=O)[C@H]2[C@H](c3ccc(F)c(Cl)c3)C2(Cl)Cl)ccc1Cl (stereo partly drawn) [F1699, N-(3-(2-Chloro-5-((1R,3R)-2,2-dichloro-3-(3-chloro-4-fluorophenyl)cyclopropane-1-carboxamido)benzamido)-2,6-difluorophenyl)tetrahydrofuran-2-carboxamide] | B (More than 0 – Less than 80) | 50 to 100 | 50 to 100 | 0 to 80 |
| O=C(CC(F)(F)F)Nc1c(F)ccc(NC(=O)c2cc(NC(=O)[C@H]3[C@H](c4ccc(F)c(Cl)c4)C3(Cl)Cl)ccc2Cl)c1F [F1701, 2-Chloro-5-((1R,3R)-2,2-dichloro-3-(3-chloro-4-fluorophenyl)cyclopropane-1-carboxamido)-N-(2,4-difluoro-3-(3,3,3-trifluoropropanamido)phenyl)benzamide] | B (More than 0 – Less than 80) | 50 to 100 | 50 to 100 | 80 to 100 |
| O=C(CC1CC1)Nc1c(F)ccc(NC(=O)c2cc(NC(=O)[C@H]3[C@H](c4ccc(F)c(Cl)c4)C3(Cl)Cl)ccc2Cl)c1F [F1702, 2-Chloro-N-(3-(2-cyclopropylacetamido)-2,4-difluorophenyl)-5-((1R,3R)-2,2-dichloro-3-(3-chloro-4-fluorophenyl)cyclopropane-1-carboxamido)benzamide] | A (80–100) | 50 to 100 | 50 to 100 | 80 to 100 |
| O=C(Nc1ccc(F)c(NC(=O)C(F)(F)C(F)F)c1F)c1cc(NC(=O)[C@H]2[C@H](c3ccc(F)c(Cl)c3)C2(Cl)Cl)ccc1Cl [F1703, 2-Chloro-5-((1R,3R)-2,2-dichloro-3-(3-chloro-4-fluorophenyl)cyclopropane-1-carboxamido)-N-(2,4-difluoro-3-(2,2,3,3-tetrafluoropropanamido)phenyl)benzamide] | A (80–100) | 50 to 100 | 50 to 100 | 80 to 100 |
| CCC(=O)Nc1c(F)ccc(NC(=O)c2cc(NC(=O)[C@H]3[C@H](c4ccc(F)c(Cl)c4)C3(Cl)Cl)ccc2Cl)c1F [F1704, 2-Chloro-5-((1R,3R)-2,2-dichloro-3-(3-chloro-4-fluorophenyl)cyclopropane-1-carboxamido)-N-(2,4-difluoro-3-propionamidophenyl)benzamide] | A (80–100) | 50 to 100 | 50 to 100 | 80 to 100 |
| CCCC(=O)Nc1c(F)ccc(NC(=O)c2cc(NC(=O)[C@H]3[C@H](c4ccc(F)c(Cl)c4)C3(Cl)Cl)ccc2Cl)c1F [F1705, N-(3-Butyramido-2,4-difluorophenyl)-2-chloro-5-((1R,3R)-2,2-dichloro-3-(3-chloro-4-fluorophenyl)cyclopropane-1-carboxamido)benzamide] | B (More than 0 – Less than 80) | 50 to 100 | 50 to 100 | 80 to 100 |
| CC(=O)Nc1c(F)ccc(NC(=O)c2cc(NC(=O)[C@H]3[C@H](c4cc(F)cc(C(F)(F)F)c4)C3(Cl)Cl)ccc2Cl)c1F [F1708, N-(3-Acetamido-2,4-difluorophenyl)-2-chloro-5-((1R,3R)-2,2-dichloro-3-(3-fluoro-5-(trifluoromethyl)phenyl)cyclopropane-1-carboxamido)benzamide] | A (80–100) | 50 to 100 | 50 to 100 | 80 to 100 |
| O=C(CC(F)(F)F)Nc1c(F)ccc(NC(=O)c2cc(NC(=O)[C@H]3[C@H](c4cc(F)cc(C(F)(F)F)c4)C3(Cl)Cl)ccc2Cl)c1F [F1710, 2-Chloro-5-((1R,3R)-2,2-dichloro-3-(3-fluoro-5-(trifluoromethyl)phenyl)cyclopropane-1-carboxamido)-N-(2,4-difluoro-3-(3,3,3-trifluoropropanamido)phenyl)benzamide] | A (80–100) | 50 to 100 | 50 to 100 | 0 to 80 |
| O=C(Nc1ccc(F)c(NC(=O)C(F)F)c1F)c1cc(NC(=O)[C@H]2[C@H](c3cc(F)cc(C(F)(F)F)c3)C2(Cl)Cl)ccc1Cl [F1711, 2-Chloro-5-((1R,3R)-2,2-dichloro-3-(3-fluoro-5-(trifluoromethyl)phenyl)cyclopropane-1-carboxamido)-N-(3-(2,2-difluoroacetamido)-2,4-difluorophenyl)benzamide] | A (80–100) | 50 to 100 | 50 to 100 | 80 to 100 |
| CC(C)(C)OC(=O)Nc1cc(NC(=O)c2cc(NC(=O)[C@H]3[C@H](c4ccc(F)c(C(F)(F)F)c4)C3(Cl)Cl)ccc2Cl)c(F)c(F)c1F [F1736, tert-Butyl (5-(2-chloro-5-((1R,3R)-2,2-dichloro-3-(4-fluoro-3-(trifluoromethyl)phenyl)cyclopropane-1-carboxamido)benzamido)-2,3,4-trifluorophenyl)carbamate] | A (80–100) | 50 to 100 | 50 to 100 | 0 to 80 |
| CCOC(C)C(=O)Nc1c(F)ccc(NC(=O)c2cc(NC(=O)[C@H]3[C@H](c4cccc(C(F)(F)F)c4)C3(Cl)Cl)ccc2Cl)c1F (stereo partly drawn) [F1737, 2-Chloro-5-((1R,3R)-2,2-dichloro-3-(3-(trifluoromethyl)phenyl)cyclopropane-1-carboxamido)-N-(3-(2-ethoxypropanamido)-2,4-difluorophenyl)benzamide] | A (80–100) | 50 to 100 | 50 to 100 | 0 to 80 |
| CCCOC(C)C(=O)Nc1c(F)ccc(NC(=O)c2cc(NC(=O)[C@H]3[C@H](c4ccc(F)c(C(F)(F)F)c4)C3(Cl)Cl)ccc2Cl)c1F (stereo partly drawn) [F1739, 2-Chloro-5-((1R,3R)-2,2-dichloro-3-(4-fluoro-3-(trifluoromethyl)phenyl)cyclopropane-1-carboxamido)-N-(2,4-difluoro-3-(2-propoxypropanamido)phenyl)benzamide] | A (80–100) | 50 to 100 | 50 to 100 | 0 to 80 |
| Nc1cc(NC(=O)c2cc(NC(=O)[C@H]3[C@H](c4ccc(F)c(C(F)(F)F)c4)C3(Cl)Cl)ccc2Cl)c(F)c(F)c1F [F1740, N-(5-Amino-2,3,4-trifluorophenyl)-2-chloro-5-((1R,3R)-2,2-dichloro-3-(4-fluoro-3-(trifluoromethyl)phenyl)cyclopropane-1-carboxamido)benzamide] | A (80–100) | 50 to 100 | 50 to 100 | 80 to 100 |
| O=C(COC(F)(F)F)Nc1c(F)ccc(NC(=O)c2cc(NC(=O)[C@H]3[C@H](c4ccc(F)c(C(F)(F)F)c4)C3(Cl)Cl)ccc2Cl)c1F [F1742, 2-Chloro-5-((1R,3R)-2,2-dichloro-3-(4-fluoro-3-(trifluoromethyl)phenyl)cyclopropane-1-carboxamido)-N-(2,4-difluoro-3-(2-(trifluoromethoxy)acetamido)phenyl)benzamide] | A (80–100) | 50 to 100 | 50 to 100 | 0 to 80 |
